# Laboratory results as given in patent US8309610B2, “Crystalline forms of (1RS,3RS,6RS)-6-dimethylaminomethyl-1-(3-methoxyphenyl)cyclohexane-1,3-diol hydrochloride” (priority 2005, dated 2012).
# Counter-ions that a name gives are not always drawn.
# Columns and labels:
# Assay type in all cases: physicochemical
# [1] = solubility in water
# [2] = stability in organic media; settings: chloroform, dioxane, ethyl acetate, hexane, tetrahydrofuran, toluene; room temperature or higher (e.g. up to 40° C.)
# [3] = water absorption / hygroscopicity
# [4] = storage in humidity chamber, polymorph conversion
# Text: Crystalline form B in an open glas container is stored in a humidity chamber at relative humidity of 35% and room temperature. Samples were taken prior to storage and after 4, 14, 19 and 21 days of storage under these conditions.
# Crystalline form B in an open glas container is stored in a humidity chamber at relative humidity of 60% and room temperature. Samples were taken prior to storage and after 7, 17 and 22 days of storage under these conditions.
# Crystalline form B in an open glas container is stored in a humidity chamber at relative humidity of 75% and room temperature. Samples were taken prior to storage and after 6, 13 and 23 days of storage under these conditions.
# [5] = variable temperature X-ray powder diffraction experiment; settings: 90° C., after half an hour
# Description: Variable temperature Powder Diffraction Data Collection was carried out on a Shimadzu XRD-6000X-ray powder diffractometer using Cu Kα radiation. The instrument is equipped with a fine focus X-ray tube. The tube voltage and amperage were set to 40 kV and 40 mA, respectively. The divergence and scattering slits were set at 1° and the receiving slit was set at 0.15 mm. Diffracted radiation was detected by a NaI scintillation detector. A theta-two theta continuous scan at 3°/min (0.4 sec/0.02° step) from 2,5 to 40° 2 θ was used. A silicon standard was analyzed each day to check the instrument alignment. The instrument was equipped with an Anton Paar HTK 1200 high temperature stage and a ceramic sample holder
smiles,measurement,setting,value
"COc1cccc([C@@]2(O)C[C@H](O)CC[C@@H]2CN(C)C)c1 (racemic) [form A, (1RS,3RS,6RS)-6-Dimethylaminomethyl-1-(3-methoxy-phenyl)cyclohexane-1,3-diol hydrochloride]",solubility in water,[1],very high solubility in water
same,stability in organic media,[2],stable in organic media
same,resistance to water absorption,"[3]; up to 60% relative humidity, room temperature, at least up to three weeks",resistant to water absorption
"COc1cccc([C@@]2(O)C[C@H](O)CC[C@@H]2CN(C)C)c1 (racemic) [form B, (1RS,3RS,6RS)-6-Dimethylaminomethyl-1-(3-methoxy-phenyl)cyclohexane-1,3-diol hydrochloride]",crystalline form found after storage,[4],crystalline form B only
same,conversion to another polymorph under high humidity,[4]; high humidity,not converted to another polymorph
same,solid form conversion on heating,[5],converted to form E
"COc1cccc([C@@]2(O)C[C@H](O)CC[C@@H]2CN(C)C)c1 (racemic) [form C, (1RS,3RS,6RS)-6-Dimethylaminomethyl-1-(3-methoxy-phenyl)cyclohexane-1,3-diol hydrochloride]",hygroscopicity,[3]; compared with all known polymorphic forms,lowest hygroscopicity of all known polymorphic forms
